Results taken from ChEMBL document CHEMBL5385963, “Enhanced inhibitory activity of compounds containing purine scaffolds compared to protein kinase CK2α considering crystalline water” (RSC Med Chem, 2024).

Target: Casein kinase II subunit alpha (Homo sapiens, UniProt P68400)
Assay: Inhibition of N-terminal GST-fusion protein tagged full length human CK2alpha1 (1 to 391 residues) expressed in baculovirus expression system co-expressing human His-tagged CK2beta using CK2tide as substrate incubated for 1 hrs in presence of ATP by off-chip mobility shift assay

Chain of Casein kinase II subunit alpha (P68400 whole entry, the tested form may be a part): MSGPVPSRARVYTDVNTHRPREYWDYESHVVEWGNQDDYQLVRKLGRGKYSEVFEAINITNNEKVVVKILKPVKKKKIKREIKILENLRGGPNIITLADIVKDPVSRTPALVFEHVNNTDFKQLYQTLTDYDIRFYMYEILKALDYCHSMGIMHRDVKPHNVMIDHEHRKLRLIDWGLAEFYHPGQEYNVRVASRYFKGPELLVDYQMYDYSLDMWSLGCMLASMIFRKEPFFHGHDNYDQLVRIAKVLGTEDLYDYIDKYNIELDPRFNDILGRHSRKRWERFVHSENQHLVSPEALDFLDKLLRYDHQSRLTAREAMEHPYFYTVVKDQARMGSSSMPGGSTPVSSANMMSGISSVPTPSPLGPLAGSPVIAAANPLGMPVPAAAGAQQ

Compared with `NC(=O)c1nc(-c2cccc(C(=O)O)c2)nc2c1[nH]c(=O)n2-c1ccc([N+](=O)[O-])cc1`, `NC(=O)c1nc(-c2ccc(C(=O)O)cc2)nc2c1[nH]c(=O)n2-c1ccc([N+](=O)[O-])cc1` is higher in IC50: 0.38 µM for the first, > 30 µM for the second.

First: N#Cc1ccc(-n2c(=O)[nH]c3c(C(N)=O)nc(-c4ccc(C(=O)O)cc4)nc32)cc1
Second: Cc1ccc(-n2c(=O)[nH]c3c(C(N)=O)nc(-c4ccc(C(=O)O)cc4)nc32)cc1
The IC50 of the first is higher: > 30 µM for the first, 11 µM for the second.

Compared with `NC(=O)c1nc(/C=C/C(=O)O)nc2c1[nH]c(=O)n2-c1ccccc1`, `NC(=O)c1nc(C(=O)O)nc2c1[nH]c(=O)n2-c1ccccc1` is higher in IC50: 1 µM for the first, > 30 µM for the second. The first is the more potent here.

First: NC(=O)c1nc(CC(=O)O)nc2c1[nH]c(=O)n2-c1ccccc1
Second: NC(=O)c1nc(CCC(=O)O)nc2c1[nH]c(=O)n2-c1ccccc1
The IC50 of the first is higher: > 30 µM for the first, 15 µM for the second.

Going from `NC(=O)c1nc(CCCC(=O)O)nc2c1[nH]c(=O)n2-c1ccccc1` to `NC(=O)c1nc(-c2ccc(C(=O)O)cc2)nc2c1[nH]c(=O)n2-c1ccccc1`, the IC50 falls from > 30 µM to 14 µM.

Compared with `N#Cc1ccc(-n2c(=O)[nH]c3c(C(N)=O)nc(-c4cccc(C(=O)O)c4)nc32)cc1`, `Cc1ccc(-n2c(=O)[nH]c3c(C(N)=O)nc(-c4cccc(C(=O)O)c4)nc32)cc1` is 1.5-fold higher in IC50: 0.4 µM for the first, 0.62 µM for the second.

`NC(=O)c1nc(-c2ccc(C(=O)O)cc2)nc2c1[nH]c(=O)n2-c1ccc(Cl)cc1` and `NC(=O)c1nc(-c2ccc(C(=O)O)cc2)nc2c1[nH]c(=O)n2-c1ccc(F)cc1` cannot be ordered by IC50: > 30 µM for the first, > 30 µM for the second.

Compared with `NC(=O)c1nc(-c2cccc(C(=O)O)c2)nc2c1[nH]c(=O)n2-c1ccc(Cl)cc1`, `NC(=O)c1nc(-c2cccc(C(=O)O)c2)nc2c1[nH]c(=O)n2-c1ccc(F)cc1` is 30-fold lower in IC50: 5.4 µM for the first, 0.18 µM for the second. The second is the more potent here.

First: COc1cccc(-n2c(=O)[nH]c3c(C(N)=O)nc(-c4ccc(C(=O)O)cc4)nc32)c1
Second: COc1ccc(-n2c(=O)[nH]c3c(C(N)=O)nc(-c4ccc(C(=O)O)cc4)nc32)cc1
The IC50 of the first is 1.9-fold higher: 18 µM for the first, 9.4 µM for the second.

`COc1ccc(-n2c(=O)[nH]c3c(C(N)=O)nc(-c4cccc(C(=O)O)c4)nc32)cc1` and `COc1cccc(-n2c(=O)[nH]c3c(C(N)=O)nc(-c4cccc(C(=O)O)c4)nc32)c1` are within 1.5-fold of each other in IC50: 2.6 µM for the first, 1.9 µM for the second.

Going from `CN(C)c1ccc(-n2c(=O)[nH]c3c(C(N)=O)nc(-c4ccc(C(=O)O)cc4)nc32)cc1` to `NC(=O)c1nc(-c2cccc(C(=O)O)c2)nc2c1[nH]c(=O)n2-c1ccccc1`, the IC50 falls from 4.3 µM to 1 µM (4.3-fold). The second is the more potent here.
